Experimental data published in US20070072242A1, “Immunoassay method and kit to leucomalachite green and malachite green” (Randox Laboratories Limited, priority 2005, published 2007).

How the values were obtained:
[1] = tested on: Ig fraction of the antiserum raised to immunogen II (hapten A-BTG); assay: competitive ELISA microtiter plate assay, antiserum to immunogen II with conjugate I (hapten A-HRP); format: binding, sheep; details: for % CR (percentage cross-reactivity based on specificity to leucomalachite green) / IC50 (standard concentration which produces 50% B/B0): Conjugate I (hapten A-HRP); for IC50 (standard concentration which produces 50% B/B0): 37° C. 2 hours; for % B/B0 / A450: Conjugate I
Method: (§1) An aqueous solution of immunogen II was formulated with Freund's Complete Adjuvant (FCA) to form an emulsion consisting of 2 mg/ml immunogen in 50% (v/v) FCA. Three sheep were immunised with this emulsion (1° immunisation), 0.25 ml being intramuscularly injected at each of four sites in the rump of each animal. Subsequent immunizations (boosts) contained 1 mg/ml immunogen. All boosts were emulsified in 50% (v/v) Freund's Incomplete Adjuvant (FIA) and were administered in the same manner as the 1° immunisation, at monthly intervals for 1 year. Blood sampling took place 7 to 14 days after each boost. Each sample was processed to produce antiserum, which was further purified by caprylic acid and ammonium sulfate precipitation to yield an immunoglobulin (Ig) fraction. The Ig fraction was evaluated by competitive ELISA microtiter plate assay, as described in Example 12 below.
(§2) The wells of an enhanced binding 96 well polystyrene microtiter plate were coated with the Ig fraction of the antiserum raised to immunogen II (hapten A-BTG) (Example 8), diluted in 10 mM Tris, pH8.5 (125 μl/well). The appropriate antibody coating dilution was determined using standard ELISA checkerboard techniques. The plate was incubated for 2 hours at 37° C., washed 4 times with Tris buffered saline containing Tween 20 (TBST) and tapped dry. Standard solutions of leucomalachite green and malachite green were prepared in TBST at 0, 5, 10, 50, 100, 250, 500 and 1000 ng/ml, and 50 μl of each was added to the appropriate wells (FIG. 8).
75 μl of conjugate I (hapten A-HRP) (Example 9), diluted in Tris buffer (pH 7.2) containing EDTA, D-mannitol, sucrose, thimerosal and BSA, was added to each of the wells, as shown in FIG. 8. The appropriate dilution of conjugate was also determined using standard ELISA checkerboard techniques. The plate was incubated at 37° C. for 2 hours. Excess unbound conjugate was removed by washing 6 times over a 10 minute period with TBST. 125 μl of tetramethylbenzidine (TMB) substrate solution was added to each well of the plate that was then incubated for 15 to 20 minutes in the dark at room temperature. The reaction was terminated by addition of 125 μl 0.2M H2SO4 to each well. The absorbance was then measured at 450 nm using a microtiter plate reader.

Bioo Kit antibodies = details: information provided by Bioo Scientific; kit designed to detect malachite green only; cited from earlier work
[2] = tested on: Ig fraction of the antiserum raised to immunogen II (hapten A-BTG); assay: competitive ELISA microtiter plate assay, antiserum to immunogen II with Conjugate II (hapten C-HRP); format: binding, sheep; details: for % CR (percentage cross-reactivity based on specificity to leucomalachite green) / IC50 (standard concentration which produces 50% B/B0): Conjugate II (hapten C-HRP); for IC50 (standard concentration which produces 50% B/B0): 25° C. 1 hour; for % B/B0 / A450: Conjugate II
Method: as §1
as §2, with “Standard solutions of leucomalachite green and malachite green were prepared in TBST at 0, 5, 10, 50, 100, 250, 500 and 1000 ng/ml, and 50 μl of each was added to the appropriate wells (FIG. 8).” left out
75 μl of conjugate C (hapten C-HRP) (Example 10), diluted in Tris buffer (pH 7.2) containing EDTA, D-mannitol, sucrose, thimerosal and BSA, was added to each of the wells, as shown in FIG. 8. The appropriate dilution of conjugate was also determined using standard ELISA checkerboard techniques.
The plate was incubated at 25° C. for 1 hour. Excess unbound conjugate was removed by washing 6 times over a 10-15 minute period with TBST.
125 μl of tetramethylbenzidine (TMB) substrate solution was added to each well of the plate that was then incubated for 20 minutes in the dark at room temperature. The reaction was terminated by addition of 100 ul 0.2 M H2SO4 to each well. The absorbance was then measured at 450 nm using a microtiter plate reader.

[3] = standard concentration 10 ng/ml
[4] = standard concentration 50 ng/ml
[5] = standard concentration 100 ng/ml
[6] = standard concentration 250 ng/ml
[7] = standard concentration 500 ng/ml
[8] = standard concentration 1000 ng/ml
[9] = standard concentration 0.5 ng/ml

SMILES | % CR (percentage cross-reactivity based on specificity to leucomalachite green) [1] | IC50 (standard concentration which produces 50% B/B0) [1] | % B/B0 ([1]; standard concentration 5 ng/ml) | A450 ([1]; standard concentration 5 ng/ml) | % B/B0 [1, 3] | A450 [1, 3] | % B/B0 [1, 4] | A450 [1, 4] | % B/B0 [1, 5] | A450 [1, 5] | % B/B0 [1, 6] | A450 [1, 6] | % B/B0 [1, 7] | A450 [1, 7] | % B/B0 [1, 8] | A450 [1, 8] | % CR (percentage cross-reactivity based on specificity to leucomalachite green) [2] | IC50 (standard concentration which produces 50% B/B0) [2] | % B/B0 [2, 9] | A450 [2, 9] | further results
CN(C)c1ccc(C(c2ccccc2)c2ccc(N(C)C)cc2)cc1 [Leucomalachite Green, leucomalachite green] | 100% | 0.02733 µg/mL | 76.0% | 1.378 | 67.5% | 1.225 | 42.0% | 0.762 | 30.2% | 0.547 | 20.2% | 0.366 | 13.6% | 0.247 | 9.8% | 0.178 | 100% | 0.00374 µg/mL | 90% | 1.550 | cross-reactivity (Bioo Kit antibodies): 1%; % B/B0 ([2]; standard concentration 1 ng/ml): 77%; A450 ([2]; standard concentration 1 ng/ml): 1.323; % B/B0 ([2]; standard concentration 5 ng/ml): 45%; A450 ([2]; standard concentration 5 ng/ml): 0.772; % B/B0 [2, 3]: 31%; A450 [2, 3]: 0.538; % B/B0 [2, 4]: 11%; A450 [2, 4]: 0.184
CN(C)c1ccc(C(=C2C=CC(=[N+](C)C)C=C2)c2ccccc2)cc1 [Malachite Green, malachite green] | 26.43% | 0.10339 µg/mL | 85.2% | 1.440 | 82.3% | 1.392 | 63.6% | 1.075 | 51.4% | 0.869 | 39.3% | 0.664 | 30.8% | 0.520 | 24.6% | 0.416 | 26.8% | 0.013962 µg/mL | 95% | 1.611 | % B/B0 ([2]; standard concentration 1 ng/ml): 89%; A450 ([2]; standard concentration 1 ng/ml): 1.504; % B/B0 ([2]; standard concentration 5 ng/ml): 67%; A450 ([2]; standard concentration 5 ng/ml): 1.137; % B/B0 [2, 3]: 57%; A450 [2, 3]: 0.967; % B/B0 [2, 4]: 29%; A450 [2, 4]: 0.497; % B/B0 [2, 5]: 20%; A450 [2, 5]: 0.342; % B/B0 [2, 6]: 13%; A450 [2, 6]: 0.227; % B/B0 [2, 7]: 11%; A450 [2, 7]: 0.184; % B/B0 [2, 8]: 7%; A450 [2, 8]: 0.113
